# Columns and labels:
# [1] = test system: liver MPS NASH model + TGFβ (PHH, KC and HSC co-cultures, high fat); assay: Secreted cytokine profile of enhanced liver MPS NASH model with TGFβ dosed with OCA or ELF (Fig 6a); assay type: cell-based, human; details: for IL-1RA production, fold change compared to control / IL-4 production, fold change compared to control / IL-6 production, fold change compared to control / IL-8 production, fold change compared to control / IP-10 production, fold change compared to control / MCP-1 production, fold change compared to control / MIP-1a production, fold change compared to control / MIP-1b production, fold change compared to control / VEGF production, fold change compared to control: vs NASH + TGFβ control
# Excerpt: The systems biology approach identified TGFβ to be a key driver in creating a more advanced NASH phenotype in the MPS model, with enhanced fibrotic markers and reduced liver function. […] Therefore, we explored how effective pharmacological intervention would be for NASH microtissues with high NPC numbers supplemented with TGFβ and exposed them to varying concentrations of OCA and ELF QD as previously described (Supp. Fig. 6a). […] OCA had the greatest effect on IL-1Rα whereas ELF had the greatest effect on MCP-1 reflecting the fact that while both candidate drugs have anti-inflammatory properties, but their mechanisms of action are different. […] Finally, we used our quantitative fibrosis imaging assay to assess the effect of each candidate drug on collagen-1 deposition and α-SMA expression (Fig. 6c). […] Both candidate drugs caused a significant reduction in collagen-1 deposition and α-SMA expression, with the highest concentrations of OCA and ELF causing an 80% reduction in α-SMA expression and a 75% reduction in collagen-1 deposition (Fig. 6c).
# Fig. 6 Using enhanced liver MPS NASH model with TGFβ, Obeticholic acid and Elafibranor modulate disease phenotype to a greater extent than in standard NASH model. PHH, KC and HSC co-cultures were cultured in the MPS platform under high-fat conditions and dosed with varying concentrations of Obeticholic acid (OCA) and Elafibranor (ELF) QD or vehicle control for 10 days, following an initial 4-day pre-culture phase. Throughout the compound dosing period TGFβ was also dosed onto all microtissues (NASH only vehicle control samples were also included in the study for comparison, which were not treated with TGFβ or dosed with any compound). a The secreted cytokine profile from treated liver microtissues was compared to determine the effects of each compound on the inflammatory profile of the liver with samples analysed at day 8 and 14 of the culture. Data were normalised by Z-transformation to allow comparison of all analytes (white = undetected). b The expression of fibrosis-associated biomarkers was analysed on day 14 media samples and compared to NASH + TGFβ control samples. c Liver microtissues were stained for collagen-type I, α-SMA, nuclei (DAPI), phalloidin (green) and imaged by confocal microscopy. Representative images are shown and scale bars 200 µm. Staining of microtissues was quantified by measuring total fluorescence intensity throughout individual microtissues, each data point represents an average of all microtissues per MPS culture (min 8, max 20). All datapoints shown with error bars highlighting means ± SD, all data from a minimum of three independent cultures: all comparisons were made to NASH + TGFβ control samples.
# Cytokine profiles in cell culture medium samples were also analysed by Luminex array for determination of 38 analytes in total, consisting of cytokines, chemokines, and growth factors using the MILLIPLEX MAP Human Cytokine/Chemokine Magnetic Bead Panel - Premixed 38 Plex (Merck Millipore, USA).
# Liver microtissues were cultured for 4 days in HEP-FAT medium, before dosing with obeticholic acid or elafibranor. Both compounds were dissolved in DMSO, diluted in cell culture medium (final DMSO concentration ≤1%) and added to microtissues during a full medium change every two days and in addition on the intervening days compounds were spiked into the media to increase drug concentration back to desired concentrations. Cultures were maintained in the presence of the compound, for a total of 10 days in the presence or absence of TGFβ.
# [2] = clinical dose, cited from earlier work
compound,measurement,setting,value
CC[C@H]1[C@@H](O)[C@@H]2[C@H](CC[C@]3(C)[C@@H]([C@H](C)CCC(=O)O)CC[C@@H]23)[C@@]2(C)CC[C@@H](O)C[C@@H]12 [Obeticholic acid],"IL-1RA production, fold change compared to control","[1]; 0.25 µM, Day 8",1.08 fold change
same,"IL-4 production, fold change compared to control","[1]; 0.25 µM, Day 8",1.009 fold change
same,"IL-6 production, fold change compared to control","[1]; 0.25 µM, Day 8",1.014 fold change
same,"IL-8 production, fold change compared to control","[1]; 0.25 µM, Day 8",1.005 fold change
same,"IP-10 production, fold change compared to control","[1]; 0.25 µM, Day 8",1.251 fold change
same,"MCP-1 production, fold change compared to control","[1]; 0.25 µM, Day 8",1.076 fold change
same,"MIP-1a production, fold change compared to control","[1]; 0.25 µM, Day 8",0.8432 fold change
same,"MIP-1b production, fold change compared to control","[1]; 0.25 µM, Day 8",0.7821 fold change
same,"VEGF production, fold change compared to control","[1]; 0.25 µM, Day 8",1.067 fold change
same,"IL-1RA production, fold change compared to control","[1]; 0.25 µM, Day 14",0.5028 fold change
same,"IL-4 production, fold change compared to control","[1]; 0.25 µM, Day 14",0.8171 fold change
same,"IL-6 production, fold change compared to control","[1]; 0.25 µM, Day 14",0.4566 fold change
same,"IL-8 production, fold change compared to control","[1]; 0.25 µM, Day 14",0.6873 fold change
same,"IP-10 production, fold change compared to control","[1]; 0.25 µM, Day 14",1.095 fold change
same,"MCP-1 production, fold change compared to control","[1]; 0.25 µM, Day 14",0.7086 fold change
same,"MIP-1a production, fold change compared to control","[1]; 0.25 µM, Day 14",0.8386 fold change
same,"VEGF production, fold change compared to control","[1]; 0.25 µM, Day 14",1.001 fold change
same,"IL-1RA production, fold change compared to control","[1]; 5 µM, Day 8",0.6972 fold change
same,"IL-4 production, fold change compared to control","[1]; 5 µM, Day 8",1.1399 fold change
same,"IL-6 production, fold change compared to control","[1]; 5 µM, Day 8",1.2962 fold change
same,"IL-8 production, fold change compared to control","[1]; 5 µM, Day 8",1.283 fold change
same,"IP-10 production, fold change compared to control","[1]; 5 µM, Day 8",1.04 fold change
same,"MCP-1 production, fold change compared to control","[1]; 5 µM, Day 8",0.9329 fold change
same,"MIP-1a production, fold change compared to control","[1]; 5 µM, Day 8",0.9021 fold change
same,"MIP-1b production, fold change compared to control","[1]; 5 µM, Day 8",0.7383 fold change
same,"VEGF production, fold change compared to control","[1]; 5 µM, Day 8",1.4206 fold change
same,"IL-1RA production, fold change compared to control","[1]; 5 µM, Day 14",0.2072 fold change
same,"IL-4 production, fold change compared to control","[1]; 5 µM, Day 14",1.048 fold change
same,"IL-6 production, fold change compared to control","[1]; 5 µM, Day 14",0.937 fold change
same,"IL-8 production, fold change compared to control","[1]; 5 µM, Day 14",0.8309 fold change
same,"IP-10 production, fold change compared to control","[1]; 5 µM, Day 14",1.661 fold change
same,"MCP-1 production, fold change compared to control","[1]; 5 µM, Day 14",0.6601 fold change
same,"MIP-1a production, fold change compared to control","[1]; 5 µM, Day 14",1.231 fold change
same,"MIP-1b production, fold change compared to control","[1]; 5 µM, Day 14",1.514 fold change
same,"VEGF production, fold change compared to control","[1]; 5 µM, Day 14",2.374 fold change
same,"IL-1RA production, fold change compared to control","[1]; 12.5 µM, Day 8",0.3318 fold change
same,"IL-4 production, fold change compared to control","[1]; 12.5 µM, Day 8",0.7385 fold change
same,"IL-6 production, fold change compared to control","[1]; 12.5 µM, Day 8",0.7346 fold change
same,"IL-8 production, fold change compared to control","[1]; 12.5 µM, Day 8",0.6207 fold change
same,"IP-10 production, fold change compared to control","[1]; 12.5 µM, Day 8",1.145 fold change
same,"MCP-1 production, fold change compared to control","[1]; 12.5 µM, Day 8",0.4485 fold change
same,"MIP-1a production, fold change compared to control","[1]; 12.5 µM, Day 8",1.263 fold change
same,"MIP-1b production, fold change compared to control","[1]; 12.5 µM, Day 8",1.247 fold change
same,"VEGF production, fold change compared to control","[1]; 12.5 µM, Day 8",1.208 fold change
same,"IL-1RA production, fold change compared to control","[1]; 12.5 µM, Day 14",0.02359 fold change
same,"IL-4 production, fold change compared to control","[1]; 12.5 µM, Day 14",0.2784 fold change
same,"IL-6 production, fold change compared to control","[1]; 12.5 µM, Day 14",0.3766 fold change
same,"IL-8 production, fold change compared to control","[1]; 12.5 µM, Day 14",0.4421 fold change
same,"IP-10 production, fold change compared to control","[1]; 12.5 µM, Day 14",0.932 fold change
same,"MCP-1 production, fold change compared to control","[1]; 12.5 µM, Day 14",0.2604 fold change
same,"MIP-1a production, fold change compared to control","[1]; 12.5 µM, Day 14",1.011 fold change
same,"MIP-1b production, fold change compared to control","[1]; 12.5 µM, Day 14",1.454 fold change
same,"VEGF production, fold change compared to control","[1]; 12.5 µM, Day 14",0.8682 fold change
same,cytokine on which the drug had the greatest effect,"[1]; NASH microtissues, high NPC, + TGFβ",IL-1Rα
same,liver Cmax,[2],12500 nM
same,Cmax,[2]; read-out: Plasma Cmax,500 nM
